Laboratory results from publication PMC4577076, “Detoxification of Indole by an Indole-Induced Flavoprotein Oxygenase from Acinetobacter baumannii” (PLoS ONE, 2015).

Molecular target: T1, IifC (Acinetobacter baumannii, UniProt A0ABX6CFV1)
T1 construct: gene styA; full length, 412 aa; pQE-80L (BamHI/PstI); expressed in E. coli CY15000 (tnaA mutant); purified by Q-Sepharose anion exchange
T1 sequence (A0ABX6CFV1 1-412): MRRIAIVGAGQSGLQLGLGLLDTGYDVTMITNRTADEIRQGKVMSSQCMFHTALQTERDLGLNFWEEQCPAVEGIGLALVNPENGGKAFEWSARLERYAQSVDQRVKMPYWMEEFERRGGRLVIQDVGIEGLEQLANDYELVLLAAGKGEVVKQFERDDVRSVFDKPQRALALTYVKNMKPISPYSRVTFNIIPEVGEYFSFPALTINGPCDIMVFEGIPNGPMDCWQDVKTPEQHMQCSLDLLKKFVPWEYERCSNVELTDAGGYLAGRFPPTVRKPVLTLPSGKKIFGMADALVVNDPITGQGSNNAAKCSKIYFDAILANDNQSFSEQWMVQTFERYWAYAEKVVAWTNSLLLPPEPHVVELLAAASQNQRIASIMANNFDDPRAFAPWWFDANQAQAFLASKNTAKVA
Experiment: FAD content of purified protein
Assay type: binding
Details: as purified from E. coli; non-covalently bound

Question: How did the “mol FAD per mol protein” value turn out when Cc1cc2nc3c(=O)[nH]c(=O)nc-3n(C[C@H](O)[C@H](O)[C@H](O)COP(=O)(O)OP(=O)(O)OC[C@H]3O[C@@H](n4cnc5c(N)ncnc54)[C@H](O)[C@@H]3O)c2cc1C [flavin adenine dinucleotide] was run?
Answer: 0.48 mol/mol
